Laboratory results as given in the COVID Moonshot data (paper PMC7615835).
Where “and” joins values, the source holds several entries; their conditions need not be identical. Identical values can stand only once.

These compounds were tested against SARS-CoV-2 Main Protease (SARS-CoV-2) (UniProt P0DTD1).

SMILES | IC50
C=CC(=O)N(c1ccc(C(F)(F)F)cc1)C(C(=O)NCCc1cccc(F)c1)c1cncc(Cl)c1 (configuration not stated) | 23.9 µM
Cn1cncc1C(=O)N(c1ccc(C(C)(C)C)cc1)C(C(=O)NCCc1cccc(F)c1)c1cccnc1 (configuration not stated) | > 99.5 µM
CC1(C)OB(c2cnc(C#N)nc2)OC1(C)C | > 99.5 µM
O=C(Nc1ccc(-c2nnc[nH]2)cc1)c1cccc(F)c1F | > 99.5 µM
O=C(CCl)N1CCN(Cc2cccs2)CC1 | 5.66 µM and 6.77 µM
CC(C)(C)c1ccc(N(C(=O)c2cc(=O)[nH][nH]2)C(C(=O)NCCc2cccc(F)c2)c2cccnc2)cc1 (configuration not stated) | 39.7 µM
C=CC(=O)N(c1ccc(C(C)(C)C)cc1)C(C(=O)NCc1ccccc1)c1cccnc1 (configuration not stated) | 33.3 µM
O=C(Cc1cc(Cl)cc(Nc2ccc(C(F)(F)F)cn2)c1)Nc1cncc2ccccc12 | 3.96 µM
CC(C)(C)c1ccc(N(C(=O)c2ccnc(N3CCOCC3)n2)C(C(=O)NCCc2cccc(F)c2)c2cccnc2)cc1 (configuration not stated) | > 99.5 µM
Cc1ccncc1NC(=O)Nc1cccc(Cl)c1 | 68 µM and 61 µM
CC(C)(C)c1ccc(N(C(=O)c2cocn2)C(C(=O)NCC2CCOC2)c2cccnc2)cc1 (configuration not stated) | 5.42 µM
CN(C)C(=O)c1cc2c(NC(=O)C3CCOc4ccc(Cl)cc43)cncc2s1 (configuration not stated) | 0.399 µM
O=C(Cc1cc(Cl)cc(Nc2c(Cl)cccc2[N+](=O)[O-])c1)Nc1cncc2ccccc12 | 2.37 µM
Cc1cc(C)c(C)c(S(=O)(=O)N2CCN(C(=O)c3cc(=O)[nH]c4ccccc34)CC2)c1C | 8.19 µM and 8.74 µM
C=CC(=O)N(c1ccc(C(C)(C)C)cc1)C(C(=O)Nc1ccc(OC)cc1OC)c1cccnc1 (configuration not stated) | 6.47 µM
O=C(CN1CC(C(=O)Nc2cncc3cc(F)ccc23)c2cc(Cl)ccc2C1=O)NC1CC1 (configuration not stated) | 0.556 µM
CC(C)(C)c1ccc(N(C(=O)c2ccon2)C(C(=O)NCCc2cccc(F)c2)c2cccnc2)cc1 (configuration not stated) | 4.26 µM
COc1ccccc1C(=O)N(c1ccc(C(C)(C)C)cc1)C(C(=O)NCCc1cccc(F)c1)c1cccnc1 (configuration not stated) | > 99.5 µM
O=C(Cc1ccc(Cl)cc1)Nc1cncc2ccccc12 | 23.7 µM
Cc1cc(N2CCC(C)N(Cc3ccccc3)CC2)n2ncnc2n1 (configuration not stated) | > 99.5 µM
Cc1ccncc1NC(=O)CN1CCC(C)CC1 | 49.2 µM
CN1CCCC(N(C(=O)c2cocn2)C(C(=O)NCCc2cccc(F)c2)c2cccnc2)C1 (configuration not stated) | > 99.5 µM
O=C(Cc1cc(Cl)cc(Nc2cc(Cl)c(F)c(Cl)c2)c1)Nc1cncc2ccccc12 | 1.85 µM
O=C(Nc1cncc2ccccc12)[C@H]1CN(S(=O)(=O)CC2CS(=O)(=O)C2)Cc2ccc(Cl)cc21 (stereo in doubt) | 0.0505 µM and 0.108 µM and 0.0737 µM
COc1ccc(CNc2cc(Cl)cc(CC(=O)Nc3cncc4ccccc34)c2)c(OC)c1 | 3.37 µM

SMILES | IC50
Cc1ccncc1NC(=O)CN(C)S(=O)(=O)c1cccc2cccnc12 | > 99 µM
O=C(Cc1cc(Cl)cc(Nc2ccccc2-c2ccccc2)c1)Nc1cncc2ccccc12 | 1.86 µM
O=C(NCCNc1ccccc1)c1cc(=O)[nH]c2ccccc12 | > 99.5 µM
CNC(=O)CN1Cc2ccc(Cl)cc2C(C(=O)Nc2cncc3ccc(C(C)(C)O)cc23)C1 (configuration not stated) | 0.564 µM
C=CC(=O)NCc1ccccc1S(=O)(=O)NC(C)(C)C | > 99.5 µM
COc1ccc2c(NC(=O)Cc3cccc(Cl)c3)cncc2c1 | 8.63 µM
Cc1ccnc(N)c1NC(=O)C1CCOc2ccc(Cl)cc21 (configuration not stated) | 69.5 µM
O=C(Nc1cncc2ccccc12)C1CCOc2c(OCc3ccccn3)cc(Cl)cc21 (configuration not stated) | 6.43 µM
CCc1ccc2c(c1)C(=O)C(=O)N2CC(=O)O | > 99.5 µM
CS(=O)(=O)Cc1ccc(N(C(=O)c2cnc[nH]2)C(C(=O)NCCc2cccc(F)c2)c2cccnc2)cc1 (configuration not stated) | 41.1 µM
O=c1[nH]c2ccc(NC(=S)Nc3ccccc3Cl)cc2[nH]1 | > 99.5 µM
O=C(Nc1cnc2nccn2c1)c1cn2c(Br)cnc2s1 | > 99.5 µM
Cc1cccc2cncc(N3CCC4(CCOc5ccc(Cl)cc54)C3)c12 (configuration not stated) | > 99.5 µM
COC(C)(C)/C=C/C[C@@H](C)[C@H]1CC[C@@]2(C)[C@@H]3[C@@H](O[C@@H]4O[C@H](CO)[C@@H](O)[C@H](O)[C@H]4O)C=C4[C@@H](CC[C@H](O)C4(C)C)[C@]3(C=O)CC[C@]12C (stereo in doubt) | > 99.5 µM
O=C(Cc1cc(Cl)cc(NCC(c2ccccc2)c2ccccc2)c1)Nc1cncc2ccccc12 | 5.82 µM
O=C(Cn1nnc2ccccc21)N(Cc1ccccc1)c1ccc(N2CCOCC2)cc1 | 19.8 µM
O=C(Cc1cc(Cl)cc(Nc2ccc(Br)cc2O)c1)Nc1cncc2ccccc12 | 3.89 µM
O=C(NCCc1cccc(F)c1)C(c1cccnc1)N(C(=O)c1cocn1)c1ccc(N2CCCC2=O)cc1 (configuration not stated) | 76.6 µM
O=C(Cc1cc(Cl)cc(Nc2cccc(-c3ccccc3)c2)c1)Nc1cncc2ccccc12 | 5.85 µM
Cc1ccccc1CN(C(=O)c1cocn1)C(C(=O)NCCc1cccc(F)c1)c1cccnc1 (configuration not stated) | > 99.5 µM
CC1CN(CCO)CCN1C(=O)CC1(C(=O)Nc2cncc3ccccc23)CCOc2ccc(Cl)cc21 (configuration not stated) | 14.5 µM
COC(=O)CNC(=O)C(c1cccnc1)N(C(=O)c1cocn1)c1ccc(C(C)(C)C)cc1 (configuration not stated) | 10.8 µM
O=C(Cc1cc(Cl)cc(NCc2ccc(Br)cc2)c1)Nc1cncc2ccccc12 | > 99.5 µM
CCC(=O)Nc1ccc(N(Cc2ccccc2)C(=O)Nn2nnc3ccccc32)cc1 | 3.59 µM
CN(C(=O)Cn1nnc2ccccc21)c1ccc(Oc2ccc(C(F)(F)F)cn2)cc1 | 37.8 µM

SMILES | IC50
Cn1ncc2cncc(NC(=O)C3CN(S(=O)(=O)CC4(C#N)CC4)Cc4ccc(Cl)cc43)c21 (configuration not stated) | 2.53 µM
CC1(C(=O)Nc2cncc3cc(S(C)(=O)=O)ccc23)CN(CC2CC2)S(=O)(=O)c2ccc(Cl)cc21 (configuration not stated) | 0.615 µM
CC(c1ccccc1)N(C(=O)c1cnc[nH]1)C(C(=O)NCCc1cccc(F)c1)c1cccnc1 (configuration not stated) | > 99 µM
CC(C)(C)c1ccc(N(C(=O)c2cocn2)C(C(=O)NCc2cccnc2)c2cccnc2)cc1 (configuration not stated) | 25.3 µM
O=C1CC(c2ccc(N(C(=O)c3cocn3)C(C(=O)NCCc3cccc(F)c3)c3cccnc3)cc2)CC(=O)N1 (configuration not stated) | 53.8 µM
CN(C1CC1)S(=O)(=O)N1Cc2ccc(Cl)cc2C(C(=O)Nc2cncc3ccccc23)C1 (configuration not stated) | 0.104 µM
Cc1cccc(C)c1NC(=O)[C@@H]1CN(C(=O)CCl)CCN1S(=O)(=O)c1ccsc1 (stereo in doubt) | 1.64 µM
O=S(=O)(Nc1ccccc1)c1cc2c(cc1OCc1ccccc1)OCO2 | 72.8 µM
COc1ccccc1OC1CCN(C(=O)c2cc(=O)[nH]c3ccccc23)C1 (configuration not stated) | > 99.5 µM
Cc1ccncc1NC(=O)Cc1cccc(F)c1 | 96.9 µM and 94.8 µM
O=C(CCl)N1CCN(C(c2ccccc2)C2CCOCC2)CC1 (configuration not stated) | 28.4 µM and 15.1 µM
O=C(Nc1cccc(F)c1)[C@@H](c1ccccc1)N1Cc2ccccc2C1=O (stereo in doubt) | > 99.5 µM
CN(C)C(=O)CNC(=O)C(c1cccnc1)N(C(=O)c1ccco1)c1ccc(C(C)(C)C)cc1 (configuration not stated) | 10.9 µM
O=C(Cc1cc(Cl)cc(N2CCN(c3cccc([N+](=O)[O-])c3)CC2)c1)Nc1cncc2ccccc12 | 2.87 µM
N#CCN1Cc2ccc(Cl)cc2C(C(=O)Nc2cncc3ccccc23)C1 (configuration not stated) | 0.335 µM
C[C@H]1CN(C(=O)OC(C)(C)C)CCN1c1cc(Cl)cc(CC(=O)Nc2cncc3ccccc23)c1 (stereo in doubt) | 2.19 µM
CC(C)(C)c1ccc(N(C(=O)c2cc(CO)n[nH]2)C(C(=O)NCCc2cccc(F)c2)c2cccnc2)cc1 (configuration not stated) | 18.8 µM
O=C1NCC(C(=O)Nc2cncc3cc(F)ccc23)c2cc(Cl)ccc21 (configuration not stated) | 1.15 µM
NC(=O)CN1Cc2ccc(Cl)cc2C(C(=O)Nc2cncc3ccccc23)C1 (configuration not stated) | 0.109 µM and 0.118 µM and 0.13 µM
CCN(CC)S(=O)(=O)c1ccc(S(=O)(=O)N2CCN(S(N)(=O)=O)CC2)cc1 | > 99.5 µM
CC(C)(C)c1ccc(N(C(=O)c2scnc2Cl)C(C(=O)NCCc2cccc(F)c2)c2cccnc2)cc1 (configuration not stated) | > 99.5 µM
CS(=O)(=O)NCC1(C(=O)Nc2cncc3ccccc23)CCOc2ccc(Cl)cc21 (configuration not stated) | 3.87 µM
O=C(NCCc1cccc(F)c1)C(c1cccnc1)N(C(=O)c1cocn1)c1ccc(C2(O)COC2)cc1 (configuration not stated) | > 99.5 µM
CCS(=O)(=O)c1cc(Cl)cc(CNS(=O)(=O)c2cccs2)c1 | > 99.5 µM
O=C(Cc1cc(Cl)cc(Nc2ccc(I)cn2)c1)Nc1cncc2ccccc12 | 2.21 µM

SMILES | IC50
O=C(Cc1cccc(Cl)c1)Nc1[nH]nc2cccnc12 | > 99.5 µM
O=C(Cc1cc(Cl)cc(Nc2c(Cl)cncc2Cl)c1)Nc1cncc2ccccc12 | 2.04 µM
Cc1ccncc1NC(=O)[C@H](C)OC(F)F (stereo in doubt) | > 99.5 µM
CC(NC(=O)c1nccc2cccnc12)c1ccc2[nH]c(=O)oc2c1 (configuration not stated) | > 99.5 µM
O=C(Cc1cc(Cl)cc(OC2CCC(=O)N2)c1)Nc1cncc2ccccc12 (configuration not stated) | 85.9 µM
O=C(Cc1cc(Cl)cc(N[C@@H](CO)Cc2ccccc2)c1)Nc1cncc2ccccc12 (stereo in doubt) | 2.5 µM
CCOC(=O)c1nc(S(C)(=O)=O)ncc1Cl | 1.6 µM
O=C(Nc1cncc2cc(F)ccc12)[C@H]1CCS(=O)(=O)c2ccc(Cl)cc21 (stereo in doubt) | 24.5 µM
Cc1ccncc1CC(=O)Nc1cccc(Cl)c1 | 29.9 µM
O=C(Cc1cc(Cl)cc(Nc2cccc(C(F)(F)F)c2F)c1)Nc1cncc2ccccc12 | 1.84 µM
Cn1cnc2cc(N(C(=O)c3cocn3)C(C(=O)NCCc3cccc(F)c3)c3cccnc3)ccc21 (configuration not stated) | > 99.5 µM
C#CCCCC(=O)N[C@H](C(=O)N[C@H](CC(C)C)C(=O)NN(CCC(N)=O)C(=O)C1OC1C(=O)OCC)C(C)(C)C (stereo in doubt) | 0.292 µM and 0.206 µM
Cc1nnc(C2Cc3ccccc3CN2C(=O)CCl)o1 (configuration not stated) | 53.5 µM
Cc1[nH]ncc1CC(=O)Nc1cccc(Cl)c1 | 54.6 µM
O=C(Cc1cc(Cl)cc(Nc2ccc(-n3ccnc3)cc2)c1)Nc1cncc2ccccc12 | 2.46 µM
Cc1nc2cc(C(=O)NNc3nc4ccncc4s3)ccc2o1 | > 99.5 µM
O=C(Cc1cc(Cl)cc(Nc2ccc3cc(Br)ccc3c2)c1)Nc1cncc2ccccc12 | 2.1 µM
O=C(NCC1CCCCC1)[C@@H]1CN(C(=O)CCl)CCN1S(=O)(=O)c1ccsc1 (stereo in doubt) | 1.1 µM
O=C(Nc1cncc2ccccc12)C1CCCc2ccc(Cl)cc21 (configuration not stated) | 0.324 µM
CNC(=O)CN1CC2(CCN(c3cncc4ccccc34)C2=O)c2cc(Cl)ccc2S1(=O)=O (configuration not stated) | 0.275 µM
O=C(Cc1cc(Cl)cc(NCc2ccc([N+](=O)[O-])cc2)c1)Nc1cncc2ccccc12 | 1.82 µM
C=CC(=O)N1CCN(S(=O)(=O)c2cccc(F)c2)CC1 | > 99.5 µM
